Test results as given in patent publication US20060089317A1, “Treatment of metastatic breast cancer with anthracyclines, and taxanes” (The University Of Manitoba, priority 2002, published 2006).

Tested on: patients with metastatic breast cancer
Settings: DPPE pretreatment
Method: In the specific Phase II clinical trial described herein, there was employed 6 mg/kg of DPPE in the form of its hydrochloride salt, administered intravenously as an aqueous solution thereof over 80 minutes, with the last 20 minutes being accompanied by infusion of the chemotherapeutic agents doxorubicin or epirubicin in combination with Taxol or Taxotere followed by the intravenous administration of an aqueous solution at a dose of 2.5 mg/kg of DPPE for 180 minutes accompanied by the infusion of Taxol or for 60 minutes accompanied by the infusion of Taxotere.
In the specific Phase II clinical trial described herein, there was employed 50 mg/M^2 of doxorubicin/epirubicin and either 175 mg/^2 Taxol or 75 mg/M^2 Taxotere administered over the last 20 minutes of infusion of the DPPE solution and over a further 180 minutes for Taxol or 60 minutes for Taxotere, accompanied by infusion of a 2.5 mg/kg of DPPE solution.
29 patients with metastatic breast cancer were treated with a combination of DPPE and epirubicin/Taxol (N=22), DPPE and doxorubicin/Taxol (N=6) or a combination of DPPE and epirubicin/Taxotere (N=1). […]

CCN(CC)CCOc1ccc(Cc2ccccc2)cc1 [DPPE, N,N-diethyl-2-[4-(phenylmethyl)-phenoxy]ethanamine]
TTP in comparison to patients not receiving DPPE treatment: did not improve
overall survival of patients receiving DPPE (compared with published studies): significantly improved
